Earlier results in patent publication US6372715B1, “Use of erythropoientin and iron preparations for producing pharmaceutical combination preparations for treating rheumatic diseases” (Roche Diagnostics GmbH, priority 1997, dated 2002).

For `[Fe]` [elementary iron], the oral iron resorption (oral) is listed as “about 1 mg per day” and the “oral iron resorption under extreme loading” value (oral administration of about 300 mg Fe(III)/day) is listed as “less than 3 mg per day”.
